Laboratory results published in US10287297B2, “Epoxyazulene derivatives useful for treating cancer and diabetes” (The United States of America, as represented by the …, priority 2015, dated 2019).

Experiments:
Format in all cases: cell-based
[1] = tested on: K-562; assay: NCI 60 cell assay, leukemia K-562; settings: Homo sapiens, K562, 48 h; K-562 (leukemia); drug exposure two days, SRB endpoint; read-out: GI-50 value
Protocol: (§1) Samples were tested in the standard National Cancer Institute 60-cell line protocol. First, they were tested against all 60 cell lines in a single final concentration of 10 micromolar. Then, they were separately tested in five 10-fold dilutions. The drug exposure was two days, with an SRB endpoint.

[2] = tested on: UO-31; assay: NCI 60 cell assay, renal UO-31; settings: Homo sapiens, 48 h; UO-31 (renal); drug exposure two days, SRB endpoint; read-out: GI-50 value
Protocol: as §1

[3] = tested on: HL-60(TB); assay: NCI 60 cell assay, leukemia HL-60(TB); settings: Homo sapiens, 48 h; HL-60(TB) (leukemia); drug exposure two days, SRB endpoint; read-out: GI-50 value
Protocol: as §1

[4] = tested on: RPMI-8226; assay: NCI 60 cell assay, leukemia RPMI-8226; settings: Homo sapiens, 48 h; RPMI-8226 (leukemia); drug exposure two days, SRB endpoint; read-out: GI-50 value
Protocol: as §1

[5] = tested on: RXF 393; assay: NCI 60 cell assay, renal RXF 393; settings: Homo sapiens, 48 h; RXF 393 (renal); drug exposure two days, SRB endpoint; read-out: GI-50 value
Protocol: as §1

[6] = tested on: OVCAR-3; assay: NCI 60 cell assay, ovarian OVCAR-3; settings: Homo sapiens, 48 h; OVCAR-3 (ovarian); drug exposure two days, SRB endpoint; read-out: GI-50 value
Protocol: as §1

[7] = tested on: HOP-62; assay: NCI 60 cell assay, NSCLC HOP-62; settings: Homo sapiens, 48 h; HOP-62 (NSCLC); drug exposure two days, SRB endpoint; read-out: GI-50 value
Protocol: as §1

[8] = tested on: SW-620; assay: NCI 60 cell assay, colon SW-620; settings: Homo sapiens, 48 h; SW-620 (colon); drug exposure two days, SRB endpoint; read-out: GI-50 value
Protocol: as §1

[9] = tested on: HCT-116; assay: NCI 60 cell assay, colon HCT-116; settings: Homo sapiens, 48 h; HCT-116 (colon); drug exposure two days, SRB endpoint; read-out: GI-50 value
Protocol: as §1

[10] = tested on: OVCAR-8; assay: NCI 60 cell assay, ovarian OVCAR-8; settings: Homo sapiens, 48 h; OVCAR-8 (ovarian); drug exposure two days, SRB endpoint; read-out: GI-50 value
Protocol: as §1

[11] = tested on: HCT-15; assay: NCI 60 cell assay, colon HCT-15; settings: Homo sapiens, 48 h; HCT-15 (colon); drug exposure two days, SRB endpoint; read-out: GI-50 value
Protocol: as §1

[12] = tested on: SN12C; assay: NCI 60 cell assay, renal SN12C; settings: Homo sapiens, 48 h, drug exposure two days, SRB endpoint, read-out: GI-50 value
Protocol: as §1

[13] = tested on: DU-145; assay: NCI 60 cell assay, prostate DU-145; settings: Homo sapiens, 48 h; DU-145 (prostate); drug exposure two days, SRB endpoint; read-out: GI-50 value
Protocol: as §1

[14] = tested on: SK-MEL-2; assay: NCI 60 cell assay, melanoma SK-MEL-2; settings: Homo sapiens, 48 h; SK-MEL-2 (melanoma); drug exposure two days, SRB endpoint; read-out: GI-50 value
Protocol: as §1

[15] = tested on: MCF7; assay: NCI 60 cell assay, breast MCF7; settings: Homo sapiens, 48 h, drug exposure two days, SRB endpoint, read-out: GI-50 value
Protocol: as §1

[16] = tested on: NCI-H226; assay: NCI 60 cell assay, NSCLC NCI-H226; settings: Homo sapiens, 48 h, drug exposure two days, SRB endpoint, read-out: GI-50 value
Protocol: as §1

[17] = tested on: CCRF-CEM; assay: NCI 60 cell assay, leukemia CCRF-CEM; settings: Homo sapiens, 48 h, drug exposure two days, SRB endpoint, read-out: GI-50 value
Protocol: as §1

[18] = tested on: PC-3; assay: NCI 60 cell assay, prostate PC-3; settings: Homo sapiens, 48 h; PC-3 (prostate); drug exposure two days, SRB endpoint; read-out: GI-50 value
Protocol: as §1

[19] = tested on: SNB-75; assay: NCI 60 cell assay, CNS SNB-75; settings: Homo sapiens, 48 h; SNB-75 (CNS); drug exposure two days, SRB endpoint; read-out: GI-50 value
Protocol: as §1

[20] = tested on: KM12; assay: NCI 60 cell assay, colon KM12; settings: Homo sapiens, 48 h, drug exposure two days, SRB endpoint, read-out: GI-50 value
Protocol: as §1

[21] = tested on: MDA-MB-231/ATCC; assay: NCI 60 cell assay, breast MDA-MB-231/ATCC; settings: Homo sapiens, 48 h; MDA-MB-231/ATCC (breast); drug exposure two days, SRB endpoint; read-out: GI-50 value
Protocol: as §1

[22] = tested on: LOX IMVI; assay: NCI 60 cell assay, melanoma LOX IMVI; settings: Homo sapiens, 48 h, drug exposure two days, SRB endpoint, read-out: GI-50 value
Protocol: as §1

[23] = tested on: M14; assay: NCI 60 cell assay, melanoma M14; settings: Homo sapiens, 48 h, drug exposure two days, SRB endpoint, read-out: GI-50 value
Protocol: as §1

[24] = tested on: SNB-19; assay: NCI 60 cell assay, CNS SNB-19; settings: Homo sapiens, 48 h; SNB-19 (CNS); drug exposure two days, SRB endpoint; read-out: GI-50 value
Protocol: as §1

[25] = tested on: NCI-H322M; assay: NCI 60 cell assay, NSCLC NCI-H322M; settings: Homo sapiens, 48 h, drug exposure two days, SRB endpoint, read-out: GI-50 value
Protocol: as §1

[26] = tested on: 786-0; assay: NCI 60 cell assay, renal 786-0; settings: Homo sapiens, 48 h; 786-0 (renal); drug exposure two days, SRB endpoint; read-out: GI-50 value
Protocol: as §1

[27] = tested on: EKVX; assay: NCI 60 cell assay, NSCLC EKVX; settings: Homo sapiens, 48 h, drug exposure two days, SRB endpoint, read-out: GI-50 value
Protocol: as §1

[28] = tested on: HOP-92; assay: NCI 60 cell assay, NSCLC HOP-92; settings: Homo sapiens, 48 h; HOP-92 (NSCLC); drug exposure two days, SRB endpoint; read-out: GI-50 value
Protocol: as §1

Structure (SMILES): CC(=O)O[C@@H]1C[C@]2(C(C)C)O[C@@]1(C)[C@@H]1CCC(C)=C1[C@@H]2OC(=O)C=Cc1ccccc1 [(Im), (3aR,4S,5R,7R,8S)-5-acetoxy-7-isopropyl-1,4-dimethyl-2,3,3a,4,5,6,7,8-octahydro-4,7-epoxyazulen-8-yl cinnamate]
- GI50 [1]: 34 µM
- GI50 [2]: 20000 nM
- GI50 [3]: 25 µM
- GI50 [4]: 10 µM
- GI50 [5]: 8900 nM
- GI50 [6]: 22 µM
- GI50 [7]: 89 µM
- GI50 [8]: 39 µM
- GI50 [9]: 16 µM
- GI50 [10]: 9000 nM
- GI50 [11]: 32 µM
- GI50 [12]: 10 µM
- GI50 [13]: 71 µM
- GI50 [14]: 100 µM
- GI50 [15]: 19 µM
- GI50 [16]: 29 µM
- GI50 [17]: 32 µM
- GI50 [18]: 8 µM
- GI50 [19]: 28 µM
- GI50 [20]: 40 µM
- GI50 [21]: 49 µM
- GI50 [22]: 30 µM
- GI50 [23]: 40 µM
- GI50 [24]: 85 µM
- GI50 [25]: 100 µM
- GI50 [26]: 85 µM
- GI50 [27]: 20 µM

Structure (SMILES): CC1=C2[C@@H](CC1)[C@]1(C)O[C@@](C(C)C)(C[C@H]1OC(=O)CO)[C@H]2OC(=O)/C=C/c1ccccc1 [Compound (Ih)]
- GI50 [1]: 38 µM
- GI50 [2]: 40 nM
- GI50 [3]: 35 µM
- GI50 [28]: 100 µM
- GI50 [4]: 27 µM
- GI50 [5]: 130 nM
- GI50 [6]: 39 µM
- GI50 [7]: 36 µM
- GI50 [8]: 40 µM
- GI50 [9]: 33 µM
- GI50 [10]: 90 nM
- GI50 [11]: 32 µM
- GI50 [12]: 20 µM
- GI50 [13]: 41 µM
- GI50 [14]: 44 µM
- GI50 [15]: 32 µM
- GI50 [16]: 35 µM
- GI50 [17]: 42 µM
- GI50 [18]: 26 µM
- GI50 [19]: 2.9 µM
- GI50 [20]: 40 µM
- GI50 [21]: 39 µM
- GI50 [22]: 42 µM
- GI50 [23]: 43 µM
- GI50 [24]: 39 µM
- GI50 [25]: 43 µM
- GI50 [26]: 35 µM

Structure (SMILES): CC1=C2[C@@H](CC1)[C@]1(C)O[C@@](C3CC3)(C[C@H]1OC(=O)CO)[C@H]2OC(=O)C=Cc1ccccc1 [Compound (Is), (3aR,4S,5R,7R,8S)-7-cyclopropyl-5-(2-hydroxyacetoxy)-1,4-dimethyl-2,3,3a,4,5,6,7,8-octahydro-4,7-epoxyazulen-8-yl cinnamate]
- GI50 [1]: 20 µM
- GI50 [2]: 330 nM
- GI50 [3]: 12 µM
- GI50 [28]: 17 µM
- GI50 [4]: 20 µM
- GI50 [5]: 14 nM
- GI50 [6]: 16 µM
- GI50 [7]: 16 µM
- GI50 [8]: 20 µM
- GI50 [9]: 16 µM
- GI50 [10]: 54 nM
- GI50 [11]: 14 µM
- GI50 [12]: 0.052 µM
- GI50 [13]: 18 µM
- GI50 [14]: 19 µM
- GI50 [15]: 13 µM
- GI50 [16]: 17 µM
- GI50 [17]: 19 µM
- GI50 [18]: 15 µM
- GI50 [19]: 13 µM
- GI50 [20]: 17 µM
- GI50 [21]: 18 µM
- GI50 [22]: 17 µM
- GI50 [23]: 17 µM
- GI50 [24]: 19 µM
- GI50 [25]: 17 µM
- GI50 [26]: 13 µM
- GI50 [27]: 14 µM
